Like-named read-outs stand apart in the source and are kept apart here.
Key:
Format in all cases: in vivo
Myzus persicae = Myzus persicae spray test; conditions: after 5 days
Procedure: Myzus persicae—Spray Test
Solvent: 78 parts by weight of acetone • • 1.5 parts by weight of dimethylformamide
(§1) Emulsifier: alkylaryl polyglycol ether
(§2) To produce a suitable active compound formulation, 1 part by weight of active compound is dissolved with the specified parts by weight of solvent and made up to the desired concentration with water containing an emulsifier concentration of 1000 ppm. To produce further test concentrations, the formulation is diluted with emulsifier-containing water.
Discs of Chinese cabbage leaves (Brassica pekinensis) infested by all stages of the green peach aphid (Myzus persicae) are sprayed with an active compound formulation of the desired concentration.
After 5 days, the efficacy in % is determined. 100% means that all the aphids have been killed; 0% means that no aphids have been killed.

Spodoptera frugiperda = Spodoptera frugiperda spray test; conditions: for pest or weed control at 500 g/ha: Spodoptera frugiperda, 168 h, read-out: efficacy
Summary of the method: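 Maize leaf discs sprayed with compound formulated in acetone/dimethylformamide and diluted in water with 1000 ppm alkylaryl polyglycol ether emulsifier. Once dry, discs are infested with fall armyworm caterpillars. Efficacy in % read after 7 days: 100% all caterpillars killed, 0% none killed.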

Phaedon cochleariae = Phaedon cochleariae spray test; conditions: for pest or weed control at 500 g/ha: Phaedon cochleariae, 168 h, read-out: efficacy
Summary of the method: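 Chinese cabbage leaf discs sprayed with compound formulated in acetone/DMF and water with 1000 ppm emulsifier, then infested with mustard beetle larvae once dry. Percent larval kill scored after 7 days (100% = all dead, 0% = none).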

Tetranychus urticae = Tetranychus urticae spray test, OP-resistant; conditions: application rate 500 g/ha; after 6 days
Summary of the method: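 Bean leaf discs carrying all stages of OP-resistant Tetranychus urticae were sprayed with compound in acetone/dimethylformamide diluted in water containing alkylaryl polyglycol ether emulsifier (1000 ppm). Mortality scored after 6 days as % efficacy (100% = all mites killed).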

Ctenocephalides felis [1] = experiment: Ctenocephalides felis oral test; conditions: application rate 100 ppm in citrated cattle blood; after 2 days
Procedure: Ctenocephalides felis—Oral Test
(§3) Solvent: dimethyl sulfoxide
To produce a suitable active compound formulation, 10 mg of active compound are mixed with 0.5 ml of dimethyl sulfoxide. Dilution with citrated cattle blood gives the desired concentration.
About 20 unfed adult cat fleas (Ctenocephalides felis) are placed into a chamber which is closed at the top and bottom with gauze. A metal cylinder whose bottom end is closed with parafilm is placed onto the chamber. The cylinder contains the blood/active compound formulation, which can be imbibed by the fleas through the parafilm membrane.
After 2 days, the kill in % is determined. 100% means that all of the fleas have been killed; 0% means that none of the fleas have been killed.

[2] = system: cattle ticks (Boophilus microplus) Parkhurst strain, SP-resistant; experiment: Boophilus microplus dip test; conditions: application rate 100 ppm, after 7 days
Procedure: Boophilus microplus—Dip Test
Test animals: cattle ticks (Boophilus microplus) Parkhurst strain, SP-resistant
as §3
10 mg of active compound are dissolved in 0.5 ml of dimethyl sulfoxide. To produce a suitable formulation, the active compound solution is diluted with water to the concentration desired in each case.
This active compound formulation is pipetted into tubes. 8-10 engorged adult female cattle ticks (Boophilus microplus) are transferred into a further tube with holes. The tube is immersed into the active compound formulation, and all the ticks are completely wetted. After the liquid has run out, the ticks are transferred on filter disks into plastic dishes and stored in a climate-controlled room.
Efficacy is assessed after 7 days by laying of fertile eggs. Eggs which are not visibly fertile are stored in a climate-controlled cabinet until the larvae hatch after about 42 days. An efficacy of 100% means that none of the ticks has laid any fertile eggs; 0% means that all the eggs are fertile.

Rhipicephalus sanguineus = Rhipicephalus sanguineus in vitro contact test with adult brown dog ticks; conditions: application rate 5 μg/cm^2 (=500 g/ha); after 48 h
Summary of the method: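 Glass tubes coated with compound in acetone (900 ppm solution giving 5 μg/cm^2), then 5-10 adult ticks held in the dark at room temperature and ambient humidity. At 48 h, ticks placed on a 45-50° C. hotplate for up to 5 min; motionless or uncoordinated ones scored dead/moribund, giving % efficacy.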

Ctenocephalides felis [3] = experiment: Ctenocephalides felis in vitro contact test with adult cat fleas; conditions: application rate 5 μg/cm^2 (=500 g/ha); after 48 h
Summary of the method: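 Glass tubes coated with acetone solutions of compound (900 ppm giving 5 μg/cm^2), dried, then held 5-10 adult cat fleas at room temperature and ambient humidity. After 48 h, dead or moribund fleas were scored; efficacy expressed as percent affected.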

Boophilus microplus = Boophilus microplus injection test; conditions: for pest or weed control at 0.02 mg: Rhipicephalus microplus, 168 h
Summary of the method: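 Compound dissolved in DMSO; 1 μl injected into the abdomen of engorged adult female ticks, five per group, kept in climate-controlled room. Efficacy scored after 7 days from fertile egg laying (100% = no fertile eggs; 0% = all fertile), with unclear eggs held ~42 days until hatching.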

Lucilia cuprina = Lucilia cuprina test; conditions: application rate 100 ppm; L1 larvae; after 2 days
Summary of the method: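 About 20 first-instar larvae were placed in vessels of minced horsemeat with compound at the desired concentration. Compound was dissolved in DMSO and diluted in water. Percent kill scored after 2 days.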

Nilaparvata lugens = Nilaparvata lugens test; conditions: application rate 500 g/ha; after 4 days
Procedure: Solvent: 78.0 parts by weight of acetone • • 1.5 parts by weight of dimethylformamide
as §1, §2
Rice plants (Oryza sativa) are sprayed with the active compound formulation of the desired concentration and then infected with the brown planthopper (Nilaparvata lugens).
After 4 days, the efficacy in % is determined. 100% means that all of the planthoppers have been killed; 0% means that none of the planthoppers have been killed.

[4] = system: Anopheles gambiae strain RSPH (homozygot kdr); experiment: Anopheles test (ANPHGB surface treatment); conditions: read-out: efficacy (mortality in %)
Procedure: Anopheles Test (ANPHGB Surface Treatment)
(§4) Solvent: acetone+2000 ppm rapeseed oil methyl ester (RME)
(§5) To produce an appropriate active compound formulation, the active compound is dissolved in the solvent (2 mg/ml). The active compound formulation is pipetted onto a glazed tile and, after it has dried off, adult mosquitoes of the species Anopheles gambiae strain RSPH (homozygot kdr) are placed onto the treated tile. The exposure time is 30 minutes.
(§6) 24 hours after contact with the treated surface, mortality in % is determined. 100% means that all mosquitoes have been killed; 0% means that none of the mosquitoes have been killed.

[5] = system: Aedes aegypti strain MONHEIM; experiment: Aedes test (AEDSAE surface treatment); conditions: read-out: efficacy (mortality in %)
Procedure: Aedes Test (AEDSAE Surface Treatment)
as §4
as §5, with “Aedes aegypti” for “Anopheles gambiae”, “MONHEIM” for “RSPH (homozygot kdr)”, “minutes. 24 hours after contact with the treated surface, mortality in % is determined. 100% means that all mosquitoes have been killed; 0% means that none of the mosquitoes have been killed.” for “minutes.”

[6] = system: Anopheles funestus strain FUMOZ-R; experiment: Anopheles test (ANPHFU surface treatment); conditions: read-out: efficacy (mortality in %)
Procedure: Anopheles Test (ANPHFU Surface Treatment)
as §4
as §5, with “funestus” for “gambiae”, “FUMOZ-R (Hunt et al., Med Vet Entomol. 2005 Sep.; 19 (3):271-5)” for “RSPH (homozygot kdr)”
as §6

[7] = application rate 500 g/ha, after 7 days
[8] = application rate 20 μg/animal, after 7 days
[9] = application rate 20 mg/m^2, exposure 30 minutes, 24 hours after contact
[10] = application rate 100 mg/m^2, exposure 30 minutes, 24 hours after contact

Structure (SMILES): CON(C)CCOc1ccc(COc2ccc(F)c(-c3cccc(OC(F)(F)F)c3)c2)cn1 [Example 10]
- efficacy (Myzus persicae; application rate 500 g/ha): 90%
- efficacy (Spodoptera frugiperda; [7]): 100%
- efficacy (Phaedon cochleariae; [7]): 100%
- efficacy (Tetranychus urticae): 100%

Structure (SMILES): CON(C)CCOc1cnc(COc2ccc(Cl)c3ccccc23)c(F)c1 [Example 19]
- efficacy (kill in %) (Ctenocephalides felis [1]): 80%
- efficacy (Spodoptera frugiperda; [7]): 100%
- efficacy (laying of fertile eggs) [2]: 100%
- efficacy (ticks dead or moribund) (Rhipicephalus sanguineus): 100%
- efficacy (Phaedon cochleariae; [7]): 100%
- efficacy (fleas dead or moribund) (Ctenocephalides felis [3]): 100%
- efficacy (laying of fertile eggs) (Boophilus microplus; [8]): 100%
- efficacy (kill in %) (Lucilia cuprina): 98%

Structure (SMILES): CON(C)CCOc1cnc(COc2ccc3oc4ccccc4c3c2)c(F)c1 [Example 20]
- efficacy (kill in %) (Ctenocephalides felis [1]): 95%
- efficacy (Nilaparvata lugens): 100%
- efficacy (Spodoptera frugiperda; [7]): 100%
- efficacy (ticks dead or moribund) (Rhipicephalus sanguineus): 100%
- efficacy (Phaedon cochleariae; [7]): 100%
- efficacy (fleas dead or moribund) (Ctenocephalides felis [3]): 100%
- efficacy (laying of fertile eggs) (Boophilus microplus; [8]): 100%
- efficacy (kill in %) (Lucilia cuprina): 100%

Structure (SMILES): CON(C)CCOc1cnc(COc2cccc3c(Cl)c(Cl)ccc23)c(F)c1 [Example 22, 2-[(6-{[(5,6-dichloro-1-naphthyl)oxy]methyl}-5-fluoropyridin-3-yl)oxy]-N-methoxy-N-methylethanamine]
- efficacy (kill in %) (Ctenocephalides felis [1]): 90%
- mortality at 20 mg/m2 [4, 9]: 80 to 100%
- mortality at 100 mg/m2 [4, 10]: 80 to 100%
- mortality at 20 mg/m2 [5, 9]: 80 to 100%
- mortality at 100 mg/m2 [5, 10]: 80 to 100%
- mortality at 20 mg/m2 [6, 9]: 80 to 100%
- mortality at 100 mg/m2 [6, 10]: 80 to 100%
- efficacy (Nilaparvata lugens): 90%
- pest or weed control at 500 g/ha (Spodoptera frugiperda; [7]): 100%
- efficacy (ticks dead or moribund) (Rhipicephalus sanguineus): 100%
- pest or weed control at 500 g/ha (Phaedon cochleariae; [7]): 100%
- efficacy (fleas dead or moribund) (Ctenocephalides felis [3]): 100%
- pest or weed control at 0.02 mg (Boophilus microplus; application rate 20 μg/animal, after 7 days, read-out: efficacy (laying of fertile eggs)): 100%
- efficacy (kill in %) (Lucilia cuprina): 100%

Structure (SMILES): CON(C)CCOc1cnc(COc2ccc3sc4ccccc4c3c2)c(F)c1 [Example 23]
- efficacy (Spodoptera frugiperda; [7]): 100%
- efficacy (laying of fertile eggs) [2]: 80%
- efficacy (ticks dead or moribund) (Rhipicephalus sanguineus): 100%
- efficacy (Phaedon cochleariae; [7]): 100%
- efficacy (Tetranychus urticae): 90%
- efficacy (fleas dead or moribund) (Ctenocephalides felis [3]): 100%
- efficacy (laying of fertile eggs) (Boophilus microplus; [8]): 100%
- efficacy (kill in %) (Lucilia cuprina): 100%

Structure (SMILES): CC(C)N(CCOc1cnc(COc2cccc3c(Cl)c(Cl)ccc23)c(F)c1)C(C)C [Example 39]
- efficacy (Myzus persicae; application rate 100 g/ha): 90%
- efficacy (Spodoptera frugiperda; [7]): 100%
- efficacy (Phaedon cochleariae; [7]): 100%
- efficacy (fleas dead or moribund) (Ctenocephalides felis [3]): 100%
- efficacy (laying of fertile eggs) (Boophilus microplus; [8]): 90%

Structure (SMILES): CON(C)CCOc1cnc(COc2ccc(Cl)c(-c3cccc(OC(F)(F)F)c3)c2)c(F)c1 [Example 48]
- efficacy (Myzus persicae; application rate 500 g/ha): 90%
- efficacy (Spodoptera frugiperda; [7]): 100%
- efficacy (ticks dead or moribund) (Rhipicephalus sanguineus): 100%
- efficacy (Phaedon cochleariae; [7]): 100%
- efficacy (Tetranychus urticae): 100%
- efficacy (fleas dead or moribund) (Ctenocephalides felis [3]): 100%
- efficacy (laying of fertile eggs) (Boophilus microplus; [8]): 100%
- efficacy (kill in %) (Lucilia cuprina): 100%

Structure (SMILES): CON(C)CCOc1cnc(COc2cccc(-c3cccc(OC(F)(F)F)c3)c2)c(F)c1 [Example 53]
- efficacy (Myzus persicae; application rate 500 g/ha): 90%
- efficacy (Nilaparvata lugens): 100%
- efficacy (Spodoptera frugiperda; [7]): 100%
- efficacy (ticks dead or moribund) (Rhipicephalus sanguineus): 100%
- efficacy (Phaedon cochleariae; [7]): 100%
- efficacy (Tetranychus urticae): 100%
- efficacy (fleas dead or moribund) (Ctenocephalides felis [3]): 100%
- efficacy (laying of fertile eggs) (Boophilus microplus; [8]): 100%
- efficacy (kill in %) (Lucilia cuprina): 100%

Structure (SMILES): CCOc1cc(OCc2ncc(OCCN(C)OC)cc2F)ccc1Cl [Example 54]
- efficacy (Spodoptera frugiperda; [7]): 100%
- efficacy (laying of fertile eggs) [2]: 100%
- efficacy (ticks dead or moribund) (Rhipicephalus sanguineus): 100%
- efficacy (Phaedon cochleariae; [7]): 100%
- efficacy (Tetranychus urticae): 100%
- efficacy (fleas dead or moribund) (Ctenocephalides felis [3]): 100%
- efficacy (laying of fertile eggs) (Boophilus microplus; [8]): 100%
- efficacy (kill in %) (Lucilia cuprina): 100%

Structure (SMILES): CON(C)CCOc1cnc(COc2ccc(F)c(-c3cccc(F)c3)c2)c(F)c1 [Example 55]
- efficacy (kill in %) (Ctenocephalides felis [1]): 90%
- efficacy (Spodoptera frugiperda; [7]): 100%
- efficacy (laying of fertile eggs) [2]: 90%
- efficacy (ticks dead or moribund) (Rhipicephalus sanguineus): 100%
- efficacy (Phaedon cochleariae; [7]): 83%
- efficacy (Tetranychus urticae): 100%
- efficacy (fleas dead or moribund) (Ctenocephalides felis [3]): 100%
- efficacy (laying of fertile eggs) (Boophilus microplus; [8]): 100%
- efficacy (kill in %) (Lucilia cuprina): 100%

Structure (SMILES): CON(C)CCOc1cnc(COc2ccc(F)c(-c3cccc(OC(F)(F)F)c3)c2)c(C)c1 [Example 59]
- efficacy (Myzus persicae; application rate 500 g/ha): 90%
- efficacy (Spodoptera frugiperda; [7]): 100%
- efficacy (ticks dead or moribund) (Rhipicephalus sanguineus): 100%
- efficacy (Phaedon cochleariae; [7]): 83%
- efficacy (Tetranychus urticae): 100%
- efficacy (fleas dead or moribund) (Ctenocephalides felis [3]): 100%
- efficacy (laying of fertile eggs) (Boophilus microplus; [8]): 100%
- efficacy (kill in %) (Lucilia cuprina): 100%

Structure (SMILES): CON(C)CCOc1cnc(COc2ccc(Cl)c3ccccc23)nc1 [Example 99, 2-[(2-{[(4-chloro-1-naphthyl)oxy]methyl}pyrimidin-5-yl)oxy]-N-methoxy-N-methylethanamine]
- mortality at 20 mg/m2 [4]: 80 to 100%
- mortality at 20 mg/m2 [5]: 80 to 100%
- mortality at 20 mg/m2 [6]: 80 to 100%
- pest or weed control at 500 g/ha (Spodoptera frugiperda): 100%
- efficacy (laying of fertile eggs) [2]: 100%
- efficacy (ticks dead or moribund) (Rhipicephalus sanguineus): 100%
- pest or weed control at 500 g/ha (Phaedon cochleariae): 100%
- efficacy (fleas dead or moribund) (Ctenocephalides felis [3]): 100%
- pest or weed control at 0.02 mg (Boophilus microplus; read-out: efficacy (laying of fertile eggs), application rate 20 μg/animal, after 7 days): 100%
- efficacy (kill in %) (Lucilia cuprina): 100%

Reference: patent US11827616B2, “Heterocyclic compounds as pesticides” (Discovery Purchaser Corporation, priority 2018, dated 2023)
